Test results published in US20130244999A1, “Substituted Heterocyclic Compounds” (Incyte Corporation, priority 2008, published 2013).

Molecular target: T1, histamine H4 receptor (Homo sapiens, UniProt Q9H3N8)
T1 construct: expressed in transfected cells; host or cells: HEK293SFM cells (membrane preparation)
Assay: Inhibition of histamine H4 receptor (Table A1; H4 membrane binding assay)
Settings: for IC50: histamine H4 receptor, "> a" = exceeds experiment limit
In short: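 Membranes came from recombinant HEK293SFM cells expressing human H4, homogenized in 50 mM Tris-HCl pH 7.5 with protease inhibitors. Nonspecific binding was set with 1000× unlabeled ligand. Bound radioligand was separated on PEI-treated GF/B filters and counted by liquid scintillation.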

T1 sequence (Q9H3N8 whole entry): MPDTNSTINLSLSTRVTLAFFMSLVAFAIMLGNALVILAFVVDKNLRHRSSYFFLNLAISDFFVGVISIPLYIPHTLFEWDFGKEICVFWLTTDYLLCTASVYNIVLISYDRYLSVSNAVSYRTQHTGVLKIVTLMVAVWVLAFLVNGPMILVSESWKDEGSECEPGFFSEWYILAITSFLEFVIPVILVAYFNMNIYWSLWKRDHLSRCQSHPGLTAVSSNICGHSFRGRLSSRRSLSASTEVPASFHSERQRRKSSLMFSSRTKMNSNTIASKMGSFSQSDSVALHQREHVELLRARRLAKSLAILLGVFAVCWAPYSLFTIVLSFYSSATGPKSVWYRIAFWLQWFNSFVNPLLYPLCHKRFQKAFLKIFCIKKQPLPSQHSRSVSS

| SMILES | IC50 | inhibition at 1 µM |
| --- | --- | --- |
| CNC(=O)c1ccc(-c2ccc3c(c2)CN(c2cc(N4CCN(C)CC4)nc(N)n2)C(C)C3)cc1C (stereo not drawn) [Example 130, 4-{2-[2-Amino-6-(4-methylpiperazin-1-yl)pyrimidin-4-yl]-3-methyl-1,2,3,4-tetrahydroisoquinolin-7-yl}-N,2-dimethylbenzamide] | 69 nM |  |
| CN1CCN(c2cc(N3CCc4ccc(Br)cc4C3)nc(N)n2)CC1 [Example 1, 4-(7-Bromo-3,4-dihydroisoquinolin-2(1H)-yl)-6-(4-methylpiperazin-1-yl)pyrimidin-2-amine] | 39 nM |  |
| CC1Cc2ccc(-c3ccn(C)n3)cc2CN1c1cc(N2CCN(C)CC2)nc(N)n1 (single isomer, unassigned) [Example 85A, 4-[3-Methyl-7-(1-methyl-1H-pyrazol-3-yl)-3,4-dihydroisoquinolin-2(1H)-yl]-6-(4-methylpiperazin-1-yl)pyrimidin-2-amine] | 20 nM |  |
| CC1Cc2ccc(-c3ccnc(C(=O)N4CCN(C)CC4)c3)cc2CN1c1cc(N2CCN(C)CC2)nc(N)n1 (single isomer, unassigned) [Example 70, 4-[3-Methyl-7-{2-[(4-methylpiperazin-1-yl)carbonyl]pyridin-4-yl}-3,4-dihydroisoquinolin-2(1H)-yl]-6-(4-methylpiperazin-1-yl)pyrimidin-2-amine] | 86 nM |  |
| CC1Cc2ccc(-c3ncc(C(=O)N(C)C)s3)cc2CN1c1cc(N2CCN(C)CC2)nc(N)n1 (stereo not drawn) [Example 134, 2-{2-[2-Amino-6-(4-methylpiperazin-1-yl)pyrimidin-4-yl]-3-methyl-1,2,3,4-tetrahydroisoquinolin-7-yl}-N,N-dimethyl-1,3-thiazole-5-carboxamide] | 38 nM |  |
| CCNC(=O)c1cccc(-c2ccc3c(c2)CN(c2cc(N4CCN(C)CC4)nc(N)n2)C(C)C3)n1 (single isomer, unassigned) [Example 158, 6-{2-[2-Amino-6-(4-methylpiperazin-1-yl)pyrimidin-4-yl]-3-methyl-1,2,3,4-tetrahydroisoquinolin-7-yl}-N-ethylpyridine-2-carboxamide] |  | 70% |
| CCNC(=O)c1cc(-c2ccc3c(c2)CN(c2cc(N4CCN(C)CC4)nc(N)n2)C(C)C3)cn1C (single isomer, unassigned) [Example 88B, 4-{2-[2-Amino-6-(4-methylpiperazin-1-yl)pyrimidin-4-yl]-3-methyl-1,2,3,4-tetrahydroisoquinolin-7-yl}-N-ethyl-1-methyl-1H-pyrrole-2-carboxamide] |  | 74% |
| CC1Cc2ccc(-c3cnn(C)c3)cc2CN1c1cc(N2CCC(N)CC2)nc(N)n1 (stereo not drawn) [Example 120, 4-(4-Aminopiperidin-1-yl)-6-[3-methyl-7-(1-methyl-1H-pyrazol-4-yl)-3,4-dihydroisoquinolin-2 (1H)-yl]pyrimidin-2-amine] | 40 nM |  |
| CC1Cc2ccc(-c3cnn(C)c3)cc2CN1c1cc(N2CCN3CCCC3C2)nc(N)n1 (stereo not drawn) [Example 126, 4-(Hexahydropyrrolo[1,2-a]pyrazin-2(1H)-yl)-6-[3-methyl-7-(1-methyl-1H-pyrazol-4-yl)-3,4-dihydroisoquinolin-2(1H)-yl]pyrimidin-2-amine] | 66 nM |  |
| CC1Cc2ccc(C3=CCN(C(=O)NC4CCCC4)CC3)cc2CN1c1cc(N2CCN(C)CC2)nc(N)n1 (stereo not drawn) [Example 136, 4-{2-[2-Amino-6-(4-methylpiperazin-1-yl)pyrimidin-4-yl]-3-methyl-1,2,3,4-tetrahydroisoquinolin-7-yl}-N-cyclopentyl-3,6-dihydropyridine-1(2H)-carboxamide] | 68 nM |  |
| CN1CCN(c2cc(N3CCc4ccc(N5CCC(c6ccn(C)c(=O)c6)CC5)cc4C3)nc(N)n2)CC1 [Example 41, 4-(1-{2-[2-Amino-6-(4-methylpiperazin-1-yl)pyrimidin-4-yl]-1,2,3,4-tetrahydroisoquinolin-7-yl}piperidin-4-yl)-1-methylpyridin-2(1H)-one] | 38 nM |  |
| CC1Cc2ccc(-c3ccc(C(=O)N(C)C)nc3)cc2CN1c1cc(N2CCN(C)CC2)nc(N)n1 (single isomer, unassigned) [Example 50 B, 5-(2-(2-amino-6-(4-methylpiperazin-1-yl)pyrimidin-4-yl)-3-methyl-1,2,3,4-tetrahydroisoquinolin-7-yl)-N,N-dimetitylpicolinamide] |  | 78% |
| CC1Cc2ccc(-c3cnn(CCC(N)=O)c3)cc2CN1c1cc(N2CCN(C)CC2)nc(N)n1 (single isomer, unassigned) [Example 114, 3-(4-{2-[2-Amino-6-(4-methylpiperazin-1-yl)pyrimidin-4-yl]-3-methyl-1,2,3,4-tetrahydroisoquinolin-7-yl}-1H-pyrazol-1-yl)propanamide] | 34 nM |  |
| CC1Cc2ccc(-c3ccc(C(=O)N4CC[C@@H](O)C4)nc3)cc2CN1c1cc(N2CCN(C)CC2)nc(N)n1 (single isomer, unassigned) [Example 56A] | 85 nM |  |
| CN1CCN(c2cc(N3CCc4cc(F)c(-c5cccc(C(=O)N(C)C)c5)cc4C3)nc(N)n2)CC1 [Example 128, 3-{2-[2-Amino-6-(4-methylpiperazin-1-yl)pyrimidin-4-yl]-6-fluoro-1,2,3,4-tetrahydroisoquinolin-7-yl}-N,N-dimethylbenzamide] | 148 nM |  |
| CCOC(=O)Nc1ccc2c(c1)CN(c1cc(N3CCN(C)CC3)nc(N)n1)CC2 [Example 34, Ethyl {2-[2-amino-6-(4-methylpiperazin-1-yl)pyrimidin-4-yl]-1,2,3,4-tetrahydroisoquinolin-7-yl}carbamate] |  | 69% |
| CC1Cc2ccc(-c3ccn(Cc4ccccn4)n3)cc2CN1c1cc(N2CCN(C)CC2)nc(N)n1 (single isomer, unassigned) [Example 155, 4-(4-Methylpiperazin-1-yl)-6-[3-methyl-7-[1-(pyridin-2-ylmethyl)-1H-pyrazol-3-yl]-3,4-dihydroisoquinolin-2(1H)-yl]pyrimidin-2-amine] | 15.3 nM |  |
| CC1Cc2ccc(-c3cnn(C)c3)cc2CN1c1cc(N2CC3CC2CN3)nc(N)n1 (stereo not drawn) [Example 123, 4-(2,5-Diazabicyclo[2.1.1]hept-2-yl)-6-[3-methyl-7-(1-methyl-1H-pyrazol-4-yl)-3,4-dihydroisoquinolin-2(1H)-yl]pyrimidin-2-amine] | 124 nM |  |
| CC1Cc2ccc(-c3ccnc(C(=O)N4CCCC4)c3)cc2CN1c1cc(N2CCN(C)CC2)nc(N)n1 (single isomer, unassigned) [Example 64A, 4-(4-methylpiperazin-1-yl)-6-[3-methyl-7-[2-(pyrrolidin-1-ylcarbonyl)pyridin-4-yl]-3,4-dihydroisoquinolin-2(1H)-yl]pyrimidin-2-amine] | 116 nM |  |
| COC(=O)N1CCC(c2ccc3c(c2)CN(c2cc(N4CCN(C)CC4)nc(N)n2)C(C)C3)CC1 (stereo not drawn) [Example 147, Methyl 4-{2-[2-amino-6-(4-methylpiperazin-1-yl)pyrimidin-4-yl]-3-methyl-1,2,3,4-tetrahydroisoquinolin-7-yl}piperidine-1-carboxylate] | 12.1 nM |  |
| CC1Cc2ccc(-c3cc(C(=O)N4CCC4)n(C)c3)cc2CN1c1cc(N2CCN(C)CC2)nc(N)n1 (single isomer, unassigned) [Example 92A, 4-[7-[5-(azetidin-1-ylcarbonyl)-1-methyl-1H-pyrrol-3-yl]-3-methyl-3,4-dihydroisoquinolin-2(1H)-yl]-6-(4-methylpiperazin-1-yl)pyrimidin-2-amine] | 25 nM |  |
